Measurements from patent US20100130608A1, “COMPOSITIONS AND METHODS FOR REDUCING TRIGLYCERIDE LEVELS” (Martek Biosciences Corporation, priority 2008, published 2010).
Marks after values point to notes of the source that are not given here.

How the values were obtained:
[1] = system: male Wister rats; test: Effect on triglyceride levels in high fructose diet rats; format: in vivo, rat; details: for Triglycerides, mean: oral gavage, mean ± SD; for Serum triglycerides, LSMEAN: least squares mean
Excerpt: The effect of the DHA ethyl ester (DHA-EE) produced according to the method of Example 2 on triglyceride levels was investigated using male Wister rats. The DHA-EE used in this example contained DHA at about 93.6% (w/w) of the total fatty acid content of the dosage form. The effect of purified DHA-EE was compared to two different DHA-containing products: DHASCO-T® (Martek Bioscience Corporation, Columbia, Md.) and Lovaza® (Reliant Pharmaceuticals, Inc., Durham, N.C.). DHASCO-T® comprises approximately 45% DHA and 55% other fatty acids (with substantially no EPA). Lovaza® comprises approximately 41.7% DHA ethyl ester, 51.7% EPA ethyl ester, and 6.4% other fatty acids. The vehicle control comprised corn oil. 84 Wistar rats were randomized into 7 groups of 12 rats each. Each rat was administered orally a high fructose diet for 4-5 weeks to raise triglyceride levels. After 4-5 weeks, rats with a triglyceride level <300 mg/dL were excluded. Then each rat was administered either (a) a vehicle control, (b) DHA ethyl ester (0.6 g/kg/day, 1.3 g/kg/day, 2.5 g/kg/day, or 5.0 g/kg/day), (c) DHASCO-T (5.0 g/kg/day), or (d) Lovaza (5.0 g/kg/day) for 28 days by oral gavage. Diets were controlled for calories, nutrients and levels of vitamin E. Triglyceride levels of the rats were measured at 14 days and 28 days. Triglyceride values shown are averages for each treatment group, presented as actual mean values.
The triglyceride results presented below in Table 8 are calculated from the same data set as in Table 7. Triglyceride values shown in Table 8 are averages for each treatment group, presented as least squares mean values.

[2] = system: male Wister rats; test: Effect on total cholesterol levels in rats; format: in vivo, rat; details: for Serum cholesterol, LSMEAN: least squares mean; for Serum cholesterol, mean: mean ± SD
Experimental: The effect of the DHA ethyl ester of Example 2 on cholesterol levels was investigated using male Wister rats, and was compared to DHASCO-T® and Lovaza®. The rats were administered either (a) a vehicle control, (b) DHA ethyl ester (0.6 g/kg/day, 1.3 g/kg/day, 2.5 g/kg/day, or 5.0 g/kg/day), (c) DHASCO-T (5.0 g/kg/day), or (d) Lovaza (5.0 g/kg/day) for 28 days. Cholesterol levels, i.e., total cholesterol, of the rats were measured at 14 days and 28 days. Total cholesterol values shown are averages for each treatment group, i.e., actual mean values.
The cholesterol results presented below in Table 10 are calculated from the same data set as in Table 9. Cholesterol level values shown in Table 10 are averages for each treatment group, presented as least squares mean values.

[3] = rat, in vivo
Excerpt: The plasma DHA fatty acid area percent and plasma EPA fatty acid area percent were determine in the rats at day 1 and day 29 (post necropsy).

[4] = 14 day, 0.6 g/kg/day fatty acid
[5] = 14 day, 1.3 g/kg/day fatty acid
[6] = 14 day, 2.5 g/kg/day fatty acid
[7] = 14 day, 5.0 g/kg/day fatty acid
[8] = 28 day, 0.6 g/kg/day fatty acid
[9] = 28 day, 1.3 g/kg/day fatty acid
[10] = 28 day, 2.5 g/kg/day fatty acid
[11] = 28 day, 5.0 g/kg/day fatty acid

CC/C=C\C/C=C\C/C=C\C/C=C\C/C=C\C/C=C\CCC(=O)OCC [DHA-EE, ethyl docosahexaenoate]
Serum triglycerides % of control, LSMEAN [1, 4]: 65 % of control | Triglycerides % of control, mean [1, 4]: 67 % of control | Triglycerides, mean [1, 4]: 176.5 ± 96.4 mg/dL | Serum triglycerides, LSMEAN [1, 4]: 168.4† mg/dL | Serum triglycerides % of control, LSMEAN [1, 5]: 67 % of control | Triglycerides % of control, mean [1, 5]: 66 % of control | Triglycerides, mean [1, 5]: 175.2 ± 50.6 mg/dL | Serum triglycerides, LSMEAN [1, 5]: 173.6† mg/dL | Serum triglycerides % of control, LSMEAN [1, 6]: 47 % of control | Triglycerides % of control, mean [1, 6]: 44 % of control | Triglycerides, mean [1, 6]: 115.5 ± 60.9 mg/dL | Serum triglycerides, LSMEAN [1, 6]: 120.2† mg/dL | Serum triglycerides % of control, LSMEAN [1, 7]: 43 % of control | Triglycerides % of control, mean [1, 7]: 37 % of control | Triglycerides, mean [1, 7]: 97.6 ± 47.8 mg/dL | Serum triglycerides, LSMEAN [1, 7]: 110.7† mg/dL | Serum triglycerides % of control, LSMEAN [1, 8]: 93 % of control | Triglycerides % of control, mean [1, 8]: 95 % of control | Triglycerides, mean [1, 8]: 182.7 ± 86.9 mg/dL | Serum triglycerides, LSMEAN [1, 8]: 174.5 mg/dL | Serum triglycerides % of control, LSMEAN [1, 9]: 60 % of control | Triglycerides % of control, mean [1, 9]: 60 % of control | Triglycerides, mean [1, 9]: 114.7 ± 37.2 mg/dL | Serum triglycerides, LSMEAN [1, 9]: 113.1† mg/dL | Serum triglycerides % of control, LSMEAN [1, 10]: 60 % of control | Triglycerides % of control, mean [1, 10]: 56 % of control | Triglycerides, mean [1, 10]: 107.9 ± 58.4 mg/dL | Serum triglycerides, LSMEAN [1, 10]: 112.6† mg/dL | Serum triglycerides % of control, LSMEAN [1, 11]: 47 % of control | Triglycerides % of control, mean [1, 11]: 41 % of control | Triglycerides, mean [1, 11]: 78.9 ± 46.5 mg/dL | Serum triglycerides, LSMEAN [1, 11]: 87.6† mg/dL | Effect on triglyceride levels (in words) ([1]; at 14 days, even at the lowest dosage level (0.6 g/kg/day)): reduces triglyceride levels | Triglyceride levels versus control (in words) ([1]; day 28, 0.6 g DHA-EE): not significantly lower than control | Serum cholesterol % of control, LSMEAN [2, 4]: 80 % of control | Serum cholesterol % of control, mean [2, 4]: 79 % of control | Serum cholesterol, LSMEAN [2, 4]: 72.4 mg/dL | Serum cholesterol, mean [2, 4]: 72.2 ± 17.7 mg/dL | Serum cholesterol % of control, LSMEAN [2, 5]: 82 % of control | Serum cholesterol % of control, mean [2, 5]: 82 % of control | Serum cholesterol, LSMEAN [2, 5]: 74.6 mg/dL | Serum cholesterol, mean [2, 5]: 75.0 ± 24.0 mg/dL | Serum cholesterol % of control, LSMEAN [2, 6]: 85 % of control | Serum cholesterol % of control, mean [2, 6]: 85 % of control | Serum cholesterol, LSMEAN [2, 6]: 77.4 mg/dL | Serum cholesterol, mean [2, 6]: 77.6 ± 23.1 mg/dL | Serum cholesterol % of control, LSMEAN [2, 7]: 75 % of control | Serum cholesterol % of control, mean [2, 7]: 74 % of control | Serum cholesterol, LSMEAN [2, 7]: 67.8 mg/dL | Serum cholesterol, mean [2, 7]: 67.1 ± 17.9 mg/dL | Serum cholesterol % of control, LSMEAN [2, 8]: 80 % of control | Serum cholesterol % of control, mean [2, 8]: 80 % of control | Serum cholesterol, LSMEAN [2, 8]: 80.6 mg/dL | Serum cholesterol, mean [2, 8]: 80.3 ± 21.8 mg/dL | Serum cholesterol % of control, LSMEAN [2, 9]: 62 % of control | Serum cholesterol % of control, mean [2, 9]: 62 % of control | Serum cholesterol, LSMEAN [2, 9]: 61.6† mg/dL | Serum cholesterol, mean [2, 9]: 62.0 ± 16.0 mg/dL | Serum cholesterol % of control, LSMEAN [2, 10]: 72 % of control | Serum cholesterol % of control, mean [2, 10]: 72 % of control | Serum cholesterol, LSMEAN [2, 10]: 71.3† mg/dL | Serum cholesterol, mean [2, 10]: 71.5 ± 17.8 mg/dL | Serum cholesterol % of control, LSMEAN [2, 11]: 60 % of control | Serum cholesterol % of control, mean [2, 11]: 60 % of control | Serum cholesterol, LSMEAN [2, 11]: 60.9† mg/dL | Serum cholesterol, mean [2, 11]: 60.2 ± 19.3 mg/dL | Effect on cholesterol levels (in words) ([2]; by 14 days, even at the lowest dosage level): reduces cholesterol levels | Plasma DHA fatty acid area percent (in words) [3]: correlates with increasing dosing of DHA | Plasma EPA fatty acid area percent (in words) [3]: does not increase in rats administered DHA-EE or DHASCO® to the same extent that it is increased in Lovaza®
